# Data from patent publication US20240374618A1, “COMPOSITION OF TANNIC ACID AND VITAMIN D AND METHODS OF USE” (Nulastin, Inc., priority 2021, published 2024).
# Key:
# human dermal fibroblasts = assay: Immunodetection of elastin in cultured human dermal fibroblasts; type: cell-based; details: for elastin concentration: FIGS. 1A-1C
# Protocol: Biological effects of tannic acid in the presence of hyaluronic acid or ferulic acid were tested on dermal fibroblasts derived from punch biopsies of healthy skin. All fibroblasts were isolated by allowing migration out of skin explants and passaged by trypsinization. Fibroblasts were maintained in alpha-minimum essential medium supplemented with 20 mM HEPES, 1% antibiotics and antimycotics, 1% L-Glutamate and 2% fetal bovine serum (FBS). Cells were plated (50×10^5 cells/dish) to reach confluency and were cultured for 7 days in the presence or absence of hyaluronic acid (0.1%), ferulic acid (5 μg/mL), tannic acid (2 μg/mL), or a combination thereof.
# Cell cultures prepared according to Example 1 maintained in the presence or absence of tannic acid, hyaluronic acid, or ferulic acid were fixed in cold 100% methanol at […] for detection of elastin or in 4% paraformaldehyde at room temperature for detection of collagen I. The multiple parallel cultures were incubated with […] of polyclonal antibody to tropoelastin (Elastin Products, Owensville, MI), or polyclonal antibody to collagen type I (Chemicon, Temecula, CA). Cultures were incubated with the respective fluorescein-conjugated goat anti-rabbit, goat anti-mouse, or rabbit anti-goat secondary antibodies. Nuclei were counter stained with propidium iodide (Sigma, St. Louis, MO). All cultures were examined with a Nikon Eclipse E1000 microscope attached to a cooled CCD camera (QImaging, Retiga EX) and analyzed with the computer-generated morphometric analysis system, in which the Image-Pro Plus software (Media Cybernetics, Silver Springs, MD) estimates the proportion of areas marked with green fluorescence, in relation to the entire (1 square mm) analyzed field.
# Cultured human dermal fibroblasts were grown in the presence or absence of tannic acid at low concentration (2 μg/mL) and high concentration (20 μg/mL). Immunodetection of elastin was performed as described in Example 2.
# (§1) Cultured human dermal fibroblasts were grown in the presence of or absence of vitamin D (10^−7 M), tannic acid ([…]), or a combination of vitamin D and tannic acid (2 μg/mL) (FIGS. 2A-2B and FIGS. 3A-3C). Immunodetection of elastin was performed as described above.
# Cultured human dermal fibroblasts were grown in the presence of or absence hyaluronic acid (0.1%), tannic acid (2 μg/mL), or a combination of hyaluronic acid (0.1%) and tannic acid (2 μg/mL). Immunodetection of elastin was performed as described above.
# Cultured human dermal fibroblasts were grown in the presence or absence of ferulic acid (5 μg/mL), tannic acid (2 μg/mL), or a combination of ferulic acid (5 μg/mL) and tannic acid (2 μg/mL). Immunodetection of elastin and collagen I was performed as described above. Results are shown in FIGS. 5A-5C, and FIGS. 6A-6B for elastin and FIGS. 7A-7C and FIG. 8 for collagen.
# Cultured human dermal fibroblasts were grown in the presence or absence of ferulic acid (20 μM), tannic acid (2 μg/mL), or copper sulfate (2 μM). Fibroblasts were also grown in presence of a combination of ferulic acid (20 μM) and copper sulfate (2 μM), a combination of ferulic acid (20 μM) and tannic acid (2 μg/mL), and a combination of tannic acid (2 μg/mL) and copper sulfate (2 μM). Immunodetection of elastin was performed as described above.
# fibroblast cultures = assay: Amount of tropoelastin in fibroblast cultures measured using PCR; type: cell-based, human; details: tannic acid added to cultures that contained vitamin D3; PCR after 18 hours; FIG. 2A
# Protocol: FIG. 2A depicts the amount of tropoelastin in fibroblast cultures measured using PCR after 18 hours.
# as §1
compound,measurement,setting,value
O=C(OC[C@H]1O[C@@H](OC(=O)c2cc(O)c(O)c(OC(=O)c3cc(O)c(O)c(O)c3)c2)[C@H](OC(=O)c2cc(O)c(O)c(OC(=O)c3cc(O)c(O)c(O)c3)c2)[C@@H](OC(=O)c2cc(O)c(O)c(OC(=O)c3cc(O)c(O)c(O)c3)c2)[C@@H]1OC(=O)c1cc(O)c(O)c(OC(=O)c2cc(O)c(O)c(O)c2)c1)c1cc(O)c(O)c(OC(=O)c2cc(O)c(O)c(O)c2)c1 [tannic acid],net deposition of elastin,human dermal fibroblasts; tannic acid (2 μg/mL) added to hyaluronic acid (0.1%),improvement in net deposition of elastin
same,net deposition of elastin,human dermal fibroblasts; tannic acid (2 μg/mL) added to vitamin D (10^−7 M),improvement in net deposition of elastin
same,production of elastin,human dermal fibroblasts; tannic acid (2 μg/mL) in the presence of ferulic acid (5 μg/mL),improved production of elastin even in the presence of ferulic acid
same,elastin concentration,human dermal fibroblasts; tannic acid at high concentration (20 μg/mL),caused elastosis
same,elastin concentration,human dermal fibroblasts; tannic acid at low concentration (2 μg/mL),improved elastin concentration
same,amount of tropoelastin,fibroblast cultures,increased the amount of tropoelastin
hyaluronic acid,elastin production,human dermal fibroblasts; hyaluronic acid (0.1%) alone,inhibition of elastin production
vitamin D,elastin production,human dermal fibroblasts; vitamin D (10^−7 M) alone,inhibition of elastin production
